Measurements from ChEMBL document CHEMBL1201862, “PubChem BioAssay data set” (2004).
The source made the active and inactive calls.

Experiments:
[1] = molecular target: T1, Tyrosine-protein phosphatase non-receptor type 7 (Homo sapiens, UniProt P35236); type: functional
T1 sequence (P35236 whole entry): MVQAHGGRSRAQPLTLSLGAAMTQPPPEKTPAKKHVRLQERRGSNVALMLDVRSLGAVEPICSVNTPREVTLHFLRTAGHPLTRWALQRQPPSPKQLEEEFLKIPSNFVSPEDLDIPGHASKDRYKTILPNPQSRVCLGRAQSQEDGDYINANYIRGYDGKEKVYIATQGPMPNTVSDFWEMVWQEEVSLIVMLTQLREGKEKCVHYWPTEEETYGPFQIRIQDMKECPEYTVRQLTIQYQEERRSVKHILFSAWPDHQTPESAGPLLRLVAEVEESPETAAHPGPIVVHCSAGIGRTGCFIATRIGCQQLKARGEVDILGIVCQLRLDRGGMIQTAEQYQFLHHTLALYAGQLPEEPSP

[2] = molecular target: T2, Tyrosine-protein phosphatase non-receptor type 22 (Homo sapiens, UniProt Q9Y2R2); type: functional
T2 sequence (Q9Y2R2 whole entry): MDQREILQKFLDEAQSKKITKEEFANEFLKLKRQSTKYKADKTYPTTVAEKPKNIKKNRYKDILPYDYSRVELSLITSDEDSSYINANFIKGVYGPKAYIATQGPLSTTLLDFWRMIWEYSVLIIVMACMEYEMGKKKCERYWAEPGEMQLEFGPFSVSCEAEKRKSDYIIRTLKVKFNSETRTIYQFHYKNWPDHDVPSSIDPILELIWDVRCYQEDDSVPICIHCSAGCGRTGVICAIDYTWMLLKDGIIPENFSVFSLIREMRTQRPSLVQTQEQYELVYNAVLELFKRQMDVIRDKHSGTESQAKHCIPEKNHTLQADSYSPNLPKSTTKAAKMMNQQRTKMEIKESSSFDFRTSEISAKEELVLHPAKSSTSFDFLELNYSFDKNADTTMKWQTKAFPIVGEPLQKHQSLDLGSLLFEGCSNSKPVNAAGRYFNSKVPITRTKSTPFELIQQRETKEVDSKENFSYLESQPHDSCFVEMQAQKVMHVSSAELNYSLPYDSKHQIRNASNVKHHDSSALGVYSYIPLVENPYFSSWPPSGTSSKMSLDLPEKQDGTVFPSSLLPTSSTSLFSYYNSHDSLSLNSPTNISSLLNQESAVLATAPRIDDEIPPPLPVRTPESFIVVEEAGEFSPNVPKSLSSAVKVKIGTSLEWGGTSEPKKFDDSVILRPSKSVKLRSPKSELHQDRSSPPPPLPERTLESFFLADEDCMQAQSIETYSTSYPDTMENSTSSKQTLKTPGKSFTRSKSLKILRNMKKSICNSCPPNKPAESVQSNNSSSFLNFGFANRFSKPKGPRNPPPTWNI

[3] = molecular target: T2, Tyrosine-protein phosphatase non-receptor type 22; type: functional; remark: listed apart in the source
[4] = decrease of insulin promoter-GFP reporter – imaging, high-content screening, mouse beta cells (AID 1628); type: functional; details: MIN6
[5] = MIN6 cell viability loss – mouse insulinoma, cytotoxicity control, dose response (AID 2122); type: functional;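 further: confirmatory high-throughput counterscreen run to flag cytotoxic compounds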
[6] = molecular target: Intestinal-type alkaline phosphatase (Mus musculus, UniProt P24822); test: PubChem AID 488875; type: functional
[7] = molecular target: T3, Intestinal-type alkaline phosphatase (Homo sapiens, UniProt P09923); test: activation of human intestinal alkaline phosphatase – biochemical, luminescent, uHTS hits, set 2, dose response (AID 488817); type: functional;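 further: potency of activators that raise enzyme activity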
[8] = molecular target: T4, Alkaline phosphatase, tissue-nonspecific isozyme (Homo sapiens, UniProt P05186); test: activation of tissue-nonspecific alkaline phosphatase – biochemical, TNAP isozyme, human IAP uHTS hits, selectivity assay for human IAP activator project, dose response (AID 488886); type: functional;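 further: potency of compounds raising TNAP activity as a selectivity check on IAP activators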
T4 sequence (P05186 whole entry): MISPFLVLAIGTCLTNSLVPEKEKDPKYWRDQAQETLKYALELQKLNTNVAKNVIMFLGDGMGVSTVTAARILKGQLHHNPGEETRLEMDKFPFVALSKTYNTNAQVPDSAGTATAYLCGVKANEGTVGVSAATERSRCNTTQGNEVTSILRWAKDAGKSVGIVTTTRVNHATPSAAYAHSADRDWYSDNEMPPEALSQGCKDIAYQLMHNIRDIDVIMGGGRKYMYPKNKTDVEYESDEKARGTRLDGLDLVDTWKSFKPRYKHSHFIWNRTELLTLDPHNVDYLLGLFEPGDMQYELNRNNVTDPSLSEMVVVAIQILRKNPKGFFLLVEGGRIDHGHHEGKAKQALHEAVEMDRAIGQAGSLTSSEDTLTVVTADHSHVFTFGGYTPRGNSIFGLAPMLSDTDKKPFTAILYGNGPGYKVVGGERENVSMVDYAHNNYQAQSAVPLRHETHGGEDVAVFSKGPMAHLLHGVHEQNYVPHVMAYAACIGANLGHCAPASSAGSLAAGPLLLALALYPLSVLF

[9] = molecular target: T3, Intestinal-type alkaline phosphatase; test: human intestinal alkaline phosphatase activators, dose response, biochemical, luminescence, uHTS hits (AID 463120); type: functional
BJ [10] = test: BJ-TERT fibroblast viability loss – cell-based, RAS-independent, luminescence, dose response (AID 1933); type: functional; details: Homo sapiens
[11] = Luminescence Cell-Based Dose Retest to Confirm Inhibitors of Cancer Stem Cells. [Related pubchem assays (depositor defined):AID2717, AID2721]; type: functional; details: Homo sapiens
HEK293 [12] = test: cells; type: functional, cell-based; details: Homo sapiens
[13] = molecular target: G-protein coupled receptor 55 (Homo sapiens, UniProt Q9Y2T6); test: selective activators of receptor GPR55 – imaging, U2OS cells, beta-arrestin-GFP redistribution, primary screen (AID 1961); type: functional
BJ [14] = test: BJ-TERT-LT-ST fibroblast viability loss – cell-based, RAS-independent, luminescence, dose response (AID 1935); type: functional; details: Homo sapiens;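 further: BJ fibroblasts immortalized with TERT plus LT and ST oncogenes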
[15] = DRD fibroblast viability loss – cell-based, non-viral oncogenic, luminescence, dose response (AID 1934); type: functional; details: Homo sapiens
BJ [16] = test: cells; type: functional, cell-based; details: Homo sapiens
HEK293 [17] = test: cells; type: functional, cell-based; details: Homo sapiens; remark: listed apart in the source
[18] = molecular target: Nucleotide-binding oligomerization domain-containing protein 2 (Homo sapiens, UniProt Q9HC29); test: inhibition of NOD2-driven NF-kB reporter – cell-based, luminescence, uHTS, HEK293 (AID 1566); type: functional
HEK293 [19] = test: cells; type: functional, cell-based; details: Homo sapiens; remark: listed apart in the source
[20] = molecular target: T5, Microphthalmia-associated transcription factor (Homo sapiens, UniProt O75030); test: reducers of TRPM1 reporter luminescence, concentration series – cell-based, SK-MEL-5, cherry-picked, set 3, MITF inhibitor project, dose response (AID 493073); type: functional;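 further: SK-MEL-5 melanoma cells with luciferase driven by the MITF target TRPM1 promoter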
T5 sequence (O75030 whole entry): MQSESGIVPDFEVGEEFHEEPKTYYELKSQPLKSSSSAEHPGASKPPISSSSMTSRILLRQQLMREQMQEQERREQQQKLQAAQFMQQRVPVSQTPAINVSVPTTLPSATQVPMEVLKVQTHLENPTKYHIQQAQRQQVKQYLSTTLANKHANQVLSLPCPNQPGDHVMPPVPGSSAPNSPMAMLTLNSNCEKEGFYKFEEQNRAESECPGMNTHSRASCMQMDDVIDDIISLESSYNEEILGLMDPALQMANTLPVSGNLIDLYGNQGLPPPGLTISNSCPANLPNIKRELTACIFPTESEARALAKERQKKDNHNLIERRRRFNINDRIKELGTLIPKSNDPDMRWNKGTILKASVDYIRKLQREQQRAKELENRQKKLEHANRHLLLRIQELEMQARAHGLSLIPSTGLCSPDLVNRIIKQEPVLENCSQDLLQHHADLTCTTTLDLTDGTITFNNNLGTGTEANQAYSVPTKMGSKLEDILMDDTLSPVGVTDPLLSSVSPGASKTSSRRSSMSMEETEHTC

HEK293 [21] = test: NOD2 signaling inhibitors in MDP-stimulated cells, cell-based, uHTS, luminescence (AID 2001); type: functional; details: Homo sapiens
HEK293 [22] = test: inhibition of NOD1-driven NF-kB reporter – cell-based, luminescence, uHTS, primary screen (AID 1578); type: functional; details: Homo sapiens
HEK293 [23] = test: cells; details: Homo sapiens
[24] = molecular target: T6, Nucleotide-binding oligomerization domain-containing protein 1 (Homo sapiens, UniProt Q9Y239); test: blockers of NOD1 pathway activity – revised, SAR follow-up (AID 2333); type: functional
T6 sequence (Q9Y239 whole entry): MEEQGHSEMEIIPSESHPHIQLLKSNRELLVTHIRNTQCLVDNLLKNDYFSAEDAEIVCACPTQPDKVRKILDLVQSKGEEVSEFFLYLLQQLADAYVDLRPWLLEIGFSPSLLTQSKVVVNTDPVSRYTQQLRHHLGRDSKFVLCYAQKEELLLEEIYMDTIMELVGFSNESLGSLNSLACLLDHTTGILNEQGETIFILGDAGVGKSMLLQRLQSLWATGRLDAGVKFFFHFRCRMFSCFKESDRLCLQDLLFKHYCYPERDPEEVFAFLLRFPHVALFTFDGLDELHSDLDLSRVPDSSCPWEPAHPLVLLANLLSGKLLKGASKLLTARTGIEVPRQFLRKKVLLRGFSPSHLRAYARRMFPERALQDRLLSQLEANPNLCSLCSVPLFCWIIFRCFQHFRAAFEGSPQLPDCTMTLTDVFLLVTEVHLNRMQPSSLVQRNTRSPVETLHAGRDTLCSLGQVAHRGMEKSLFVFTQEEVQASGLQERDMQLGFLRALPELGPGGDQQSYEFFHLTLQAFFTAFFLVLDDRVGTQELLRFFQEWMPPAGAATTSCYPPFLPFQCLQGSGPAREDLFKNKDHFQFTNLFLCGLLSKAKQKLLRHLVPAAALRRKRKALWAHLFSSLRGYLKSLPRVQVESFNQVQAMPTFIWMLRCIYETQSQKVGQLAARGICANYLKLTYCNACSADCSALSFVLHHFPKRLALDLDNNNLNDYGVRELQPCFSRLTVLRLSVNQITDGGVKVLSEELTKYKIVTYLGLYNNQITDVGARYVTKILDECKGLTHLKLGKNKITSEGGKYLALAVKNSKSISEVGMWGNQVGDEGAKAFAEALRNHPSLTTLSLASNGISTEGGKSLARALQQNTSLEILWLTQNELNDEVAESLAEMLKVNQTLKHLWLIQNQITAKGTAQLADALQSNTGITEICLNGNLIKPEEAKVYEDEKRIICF

Tumor necrosis factor = Tumor necrosis factor (Homo sapiens, UniProt P01375); test: analog potency on TNFa NF-kB signaling – cell-based, revised, SAR follow-up (AID 2337); type: functional
Tumor necrosis factor, sequence (P01375 whole entry): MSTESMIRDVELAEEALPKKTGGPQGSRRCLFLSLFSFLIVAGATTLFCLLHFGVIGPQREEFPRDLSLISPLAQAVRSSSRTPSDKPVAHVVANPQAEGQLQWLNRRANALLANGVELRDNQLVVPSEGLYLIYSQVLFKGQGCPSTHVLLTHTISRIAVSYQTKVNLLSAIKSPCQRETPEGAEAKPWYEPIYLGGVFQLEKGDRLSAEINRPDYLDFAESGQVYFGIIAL

Nucleotide-binding oligomerization domain-containing protein 2, sequence (Q9HC29 whole entry, the tested form may be a part): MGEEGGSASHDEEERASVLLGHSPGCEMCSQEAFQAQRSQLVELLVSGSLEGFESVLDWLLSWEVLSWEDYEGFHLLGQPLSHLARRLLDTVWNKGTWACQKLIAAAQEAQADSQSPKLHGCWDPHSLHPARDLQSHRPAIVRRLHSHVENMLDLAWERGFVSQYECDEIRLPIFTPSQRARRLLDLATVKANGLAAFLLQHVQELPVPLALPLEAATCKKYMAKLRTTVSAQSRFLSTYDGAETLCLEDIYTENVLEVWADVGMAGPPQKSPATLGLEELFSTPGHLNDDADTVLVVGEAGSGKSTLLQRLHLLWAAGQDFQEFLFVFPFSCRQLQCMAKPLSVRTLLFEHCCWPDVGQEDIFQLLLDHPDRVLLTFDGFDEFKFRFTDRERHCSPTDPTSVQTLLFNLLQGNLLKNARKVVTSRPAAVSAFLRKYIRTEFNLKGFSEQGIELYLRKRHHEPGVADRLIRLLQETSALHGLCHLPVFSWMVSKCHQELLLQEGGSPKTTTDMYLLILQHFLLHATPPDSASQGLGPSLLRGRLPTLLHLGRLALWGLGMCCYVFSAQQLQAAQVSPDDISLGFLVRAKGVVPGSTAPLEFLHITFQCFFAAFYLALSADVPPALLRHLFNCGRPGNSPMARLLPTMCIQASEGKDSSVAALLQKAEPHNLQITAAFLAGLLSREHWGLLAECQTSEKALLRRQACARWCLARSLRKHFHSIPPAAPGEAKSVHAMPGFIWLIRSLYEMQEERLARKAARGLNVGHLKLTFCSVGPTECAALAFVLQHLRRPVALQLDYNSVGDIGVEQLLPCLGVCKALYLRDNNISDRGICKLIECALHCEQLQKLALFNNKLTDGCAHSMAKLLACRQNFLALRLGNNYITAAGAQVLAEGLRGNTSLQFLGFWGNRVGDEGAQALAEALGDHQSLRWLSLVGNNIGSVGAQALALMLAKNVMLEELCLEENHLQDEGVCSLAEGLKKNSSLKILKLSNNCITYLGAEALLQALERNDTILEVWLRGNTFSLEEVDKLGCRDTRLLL
T3 sequence (P09923 whole entry): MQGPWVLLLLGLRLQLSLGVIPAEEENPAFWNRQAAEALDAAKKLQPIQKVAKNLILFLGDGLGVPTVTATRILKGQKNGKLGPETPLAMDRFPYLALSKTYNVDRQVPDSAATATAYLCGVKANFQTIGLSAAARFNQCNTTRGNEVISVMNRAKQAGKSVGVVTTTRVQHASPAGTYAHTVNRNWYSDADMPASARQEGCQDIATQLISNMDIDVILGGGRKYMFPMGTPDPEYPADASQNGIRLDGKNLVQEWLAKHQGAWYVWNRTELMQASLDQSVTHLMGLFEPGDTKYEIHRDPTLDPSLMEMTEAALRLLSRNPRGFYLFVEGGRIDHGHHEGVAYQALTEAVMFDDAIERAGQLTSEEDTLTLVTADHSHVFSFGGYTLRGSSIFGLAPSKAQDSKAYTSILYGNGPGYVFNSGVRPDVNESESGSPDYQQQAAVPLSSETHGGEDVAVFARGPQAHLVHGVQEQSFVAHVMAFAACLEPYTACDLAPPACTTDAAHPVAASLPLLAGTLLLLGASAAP
G-protein coupled receptor 55, sequence (Q9Y2T6 whole entry): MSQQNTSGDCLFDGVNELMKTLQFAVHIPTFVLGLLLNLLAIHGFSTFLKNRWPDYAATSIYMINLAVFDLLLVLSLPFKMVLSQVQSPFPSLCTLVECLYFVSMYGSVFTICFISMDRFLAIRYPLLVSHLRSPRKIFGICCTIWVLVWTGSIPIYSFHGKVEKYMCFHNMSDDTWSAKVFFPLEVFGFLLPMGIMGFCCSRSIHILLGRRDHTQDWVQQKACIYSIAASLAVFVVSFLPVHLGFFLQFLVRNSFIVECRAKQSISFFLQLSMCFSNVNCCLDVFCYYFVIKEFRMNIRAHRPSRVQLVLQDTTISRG
Intestinal-type alkaline phosphatase (Mus musculus, UniProt P24822), sequence (P24822 whole entry): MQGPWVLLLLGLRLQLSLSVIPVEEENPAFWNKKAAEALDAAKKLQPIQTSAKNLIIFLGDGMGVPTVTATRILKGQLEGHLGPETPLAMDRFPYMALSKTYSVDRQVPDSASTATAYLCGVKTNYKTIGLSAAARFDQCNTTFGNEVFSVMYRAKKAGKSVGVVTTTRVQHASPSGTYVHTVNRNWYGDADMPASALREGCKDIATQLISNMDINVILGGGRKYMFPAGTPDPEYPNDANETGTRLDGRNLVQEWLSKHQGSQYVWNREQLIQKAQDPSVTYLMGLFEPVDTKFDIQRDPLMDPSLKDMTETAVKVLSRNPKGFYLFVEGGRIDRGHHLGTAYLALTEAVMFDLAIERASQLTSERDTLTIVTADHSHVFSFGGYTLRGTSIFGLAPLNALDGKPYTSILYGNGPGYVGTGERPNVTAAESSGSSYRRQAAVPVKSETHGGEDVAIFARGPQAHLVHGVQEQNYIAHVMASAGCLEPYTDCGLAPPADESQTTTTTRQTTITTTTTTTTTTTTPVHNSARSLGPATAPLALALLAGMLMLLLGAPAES

CC12CCC(=O)N1c1ccccc1C(=O)N2c1ccccc1 (stereo unspecified)
inactive: IC50 [1] > 79.4 µM | IC50 [2] > 79.4 µM | IC50 [3] > 79.4 µM

COc1ccc(NCc2nc3ccccc3n2CCOc2ccc(C)cc2)cc1
active: IC50 [4] 2 µM | IC50 [5] 4.54 µM

Cc1nc(Nc2nc3c(c(=O)[nH]2)CCC3)nc2ccccc12
active: EC50 [7] 17.6 µM | EC50 [8] 26.1 µM | EC50 [9] 13.1 µM
inactive: EC50 [6] > 100 µM

O=C1NC(=O)N(Cc2ccccc2)C(=O)/C1=C/C=C/c1ccco1
inactive: IC50 (HEK293 [12]) > 20 µM | EC50 [13] > 32 µM | IC50 (HEK293 [17]) > 20 µM | EC50 [18] > 20 µM | IC50 (HEK293 [21]) > 20 µM | EC50 (HEK293 [22]) > 20 µM
active: AC50 [11] 1.47 µM | EC50 (BJ [14]) 4.14 µM | EC50 (BJ [16]) 8.18 µM | IC50 (HEK293 [19]) 17.5 µM | AC50 [20] 4.85 µM
inconclusive: EC50 (BJ [10]) 5.74 µM | EC50 [15] 5.85 µM

Cc1cccc(-n2ncc3c2CCCC3NC(=O)C2(C(N)=O)CC2)c1C (stereo unspecified)
active: IC50 [24] 4.31 µM | IC50 (Tumor necrosis factor) 14.5 µM | EC50 [18] 19.7 µM | IC50 (HEK293 [19]) 9.93 µM | EC50 (HEK293 [22]) 2.53 µM
inactive: IC50 (HEK293 [23]) > 20 µM | IC50 (HEK293 [12]) > 20 µM | IC50 (HEK293 [17]) > 20 µM | IC50 (HEK293 [21]) 16.2 µM
